From paper PMC5059489, “Mechanistic evaluation and transcriptional signature of a glutathione S-transferase omega 1 inhibitor” (Nature Communications, 2016)

Experiments:
HCT116 cells [1] = experiment: Cell cycle analysis by flow cytometry; assay type: cell-based, human; conditions: 5 μM, 24 h
Procedure: Cells were seeded at a density of 0.5 × 10^6 per well in a six-well plate. After overnight attachment, cells were treated with C1-27 (5 μM) for 24 h and collected using trypsin. Cells were then washed twice with PBS containing 10% serum and fixed with 70% ethanol overnight at −20 °C. Fixed cells were washed twice in PBS containing 10% serum and stained with 50 μg ml^−1 propidium iodide solution containing 100 μg ml^−1 RNase A for 1 h at 37 °C. Cell cycle was analysed on a BD LSR II flow cytometer (BD Biosciences) and data were analysed using ModFit software.

HCT116 cells [2] = experiment: Caspase 3/7 assay (ApoTox-Glo); assay type: cell-based, human; conditions: 24 h
Procedure: HCT116 cells were treated with indicated concentrations of C1-27 for 24 h. Caspase activation was measured using ApoTox-Glo triplex assay reagent according to the manufacturer's recommendation.

**Q.** Which S-phase population (HCT116 cells [1]) does the source give for `CN(C)S(=O)(=O)c1cc(NC(=O)CCl)ccc1Cl` [C1-27] here?
**A.** Its S-phase population is “increase”.

**Q.** What about the caspases (HCT116 cells [2]) of the same molecule?
**A.** Its caspases is “activation”.
